Experimental findings from patent EP3319936B1, “BRIDGE LINKERS FOR CONJUGATION OF CELL-BINDING MOLECULES” (priority 2015, dated 2015) are described below.

The subject of one assay is HL60 cell (Ag-). Nature of the assay: In vitro cytotoxicity (MTT) assay, HL60 cells. It counts as cell-based. The settings on record: HL-60 human promyelocytic leukemia cell line, 120 hours incubation. On the procedure:
(§1) The cell lines used in the cytotoxicity assays were HL-60, a human promyelocytic leukemia cell line; NCI-N87, a human gastric carcinoma cell line; and SKOV3, a human ovarian carcinoma cell line. […] For SKOV3 cells, the cells were grown in McCoy's 5A Medium with 10% FBS. To run the assay, the cells (180 µl, 6000 cells) were added to each well in a 96-well plate and incubated for 24 hours at 37°C with 5% CO2. Next, the cells were treated with test compounds (20 µl) at various concentrations in appropriate cell culture medium (total volume, 0.2 mL). The control wells contain cells and the medium but lack the test compounds. The plates were incubated for 120 hours at 37°C with 5% CO2. MTT (5mg/ml) was then added to the wells (20 µl) and the plates were incubated for 1.5hr at 37°C. The medium was carefully removed and DMSO (180 µl) was added afterward. […] The inhibition% was calculated according to the following equation: inhibition% = [1-(assay-blank)/(control-blank)] × 100.

The next assay has as its system SK-OV-3 cell (Ag+). Kind of assay: In vitro cytotoxicity (MTT) assay, SK-OV-3 cells. It counts as cell-based, human. On the procedure: as §1
Another assay relates to N87 cell (Ag+). Kind of assay: In vitro cytotoxicity (MTT) assay, N87 cells. In kind it is cell-based, human. The protocol: as §1

For T-DM1, the IC50 (in general, the concentration that gives 50% inhibition) is more than 15 nM in the assay with HL60 cell (Ag-); 0.177 nM in the assay with SK-OV-3 cell (Ag+) (SKOV3 human ovarian carcinoma cell line, 120 hours incubation, MTT); 0.266 nM with N87 cell (Ag+) (NCI-N87 human gastric carcinoma cell line, 120 hours incubation, MTT). Besides, the “Specificity for SK-OV-3 cell” value in the assay with SK-OV-3 cell (Ag+) (matches ratio of HL60 (Ag-) IC50 bound to SK-OV-3 IC50) was “over 84”. The “Specificity for N87 cell” value in the assay with N87 cell (Ag+) (matches ratio of HL60 (Ag-) IC50 bound to N87 IC50) is given as “over 56”.
